Source: patent publication US4902720A (priority 1988, dated 1990)
Read-outs that look alike come from different tables or passages of the source.

Key:
HSV-1 = test: microbe, parasite or virus in culture; details: read-out: % Reduction
HSV-1 and HSV-2 = type: cell-based
HSV-2 = tested on: HSV-2
Description: Female guinea pigs (obtained from Charles River, Inc.) weighing approximately 200 g were used as a model for HSV-2 skin lesions. The animals were anesthetized with 0.15 ml of Ketamine-Rompum mixture. The animals were first shaved on their back with a hair clipper and then treated with a depilatory cream (Nair). The denuded area was washed well and then dried. A tuberculin tyne was washed with ethanol and air dried.
Two methods were tried for infecting the animals with the virus. In one, a drop of HSV-2 suspension was placed on the skin and the skin was punctured with the tyne. In the second method, the tyne was dipped in the virus suspension before puncturing the skin.
In the first experiment, each of 3 guinea pigs was infected on three areas of their backs. At 3 days post infection, treatment was begun on one side of each animal, leaving the other side untreated as a control.
The animals were examined daily for vesicles (V), crust (C) and for erythema (R) alone.
In the next experiment, 6 guinea pigs were infected in the same manner as the initial 3 guinea pigs. Treatment was begun 12-16 hours post infection. […] Lesions showing an erythematous base with either a blister or a crust on top were considered to be HSV specific. […] Both the control animals and treated animals were carefully read in the same manner.

HSV-1 (F strain) [1] = details: 2.5 mg/ml TEAC
HSV-1 (F strain) [2] = details: for % plaque inhibition: drug added after inoculation; for appearance of cell layer / % plaque inhibition A: Exp. 1D; for appearance of cell layer: after virus adsorption, thin = attached but monolayer not confluent; for % plaque inhibition A: drug added after virus adsorption
HSV-1 (McKrae strain) [3] = details: Virus and Drug (20 mg/ml)
[4] = tested on: Flow 1000 cells (foreskin cells); details: 25 mg/ml, 48 hours, 37° C.
Description: (§1) Healthy confluent monolayer cell cultures were overlaid with 1 ml of the drug and incubated for 48 hours at 37° C. and then stained. Cell cultures with maintenance media were used as controls.

RK-13 cells = details: 25 mg/ml, 48 hours, 37° C.
Description: as §1

Vero cells = details: 25 mg/ml, 48 hours, 37° C.
Description: as §1

HSV-1 (McKrae strain) [5] = details: for No. of Plaques: virus controls 270, 270, 252
Description: All cultures were incubated at 37° C. in a 5% CO2 humidified atmosphere. The cultures were stained with crystal violet to aid in counting the plaque.

[6] = tested on: RK-13, Vero cells, and WISH cells; details: cultures with vs without TEAC
Description: To determine the toxicity level of the drug, all three cell lines--RK-13, Vero cells, and WISH cells--were used. In the toxicity experiments, the effect of the drug on the uninfected cell for a range of periods of time was determined. Accordingly, cultures were incubated with and without the drug. The time of exposure was from one to seven hours. A comparison was then made between the drug treated cultures and the control cultures. After each period of incubation, the cells were washed and fresh media was added to the cells. The cell viability was then determined by dividing these cultures and having them grow into new cell cultures.

Compound: CC[N+](CC)(CC)CC.[Cl-] [TEAC, tetraethylammonium chloride]
- inhibition at 20000 µg/mL (HSV-1; Human alphaherpesvirus 1, 4 h): 25%
- inhibition at 20000 µg/mL (HSV-1; Human alphaherpesvirus 1, 6 h): 57%
- inhibition at 20000 µg/mL (HSV-1; Human alphaherpesvirus 1, 8 h): 69%
- inhibition at 20000 µg/mL (HSV-1; Human alphaherpesvirus 1, 10 h): 88%
- change in the morphology of the cells (Vero and WISH cells; 5 mg, 2.5 mg and 1.25 mg TEAC per culture, overnight): No change in the morphology of the cells
- growth or general appearance vs untreated controls (Vero and WISH cells; after wash, additional 24 hours in fresh medium): no apparent difference in the growth or general appearance
- permissiveness of cells to virus (HSV-1 and HSV-2; TEAC added before viral inoculation, time and dosage dependent): rendered the cells non-permissive to the virus and no plaque formed
- in vitro replication of HSV-1 and HSV-2 (HSV-1 and HSV-2; summary): inhibited the in vitro replication of HSV-1 and HSV-2
- plaque number and size (HSV-1 and HSV-2; summary): not only by the reduced number of plaque, but also by their reduced size
- number and size of lesions (HSV-2; TEAC from 12-16 hours P.I.): significant reduction in the number of lesions, but also in their size
- rupture and crusting of lesions (HSV-2; TEAC from 12-16 hours P.I.): the lesions neither ruptured nor crusted
- number and appearance of lesions, treated vs control (HSV-2; TEAC ointment from 12-16 hours P.I.): marked difference between the two groups, not only in the number of lesions but also in their appearance
- Percent Reduction of lesions (HSV-2; TEAC ointment from 12-16 hours P.I., day 3 P.I.): 21.0%
- # of lesions (HSV-2; TEAC ointment from 12-16 hours P.I., day 3 P.I., control 19): 15 lesions
- Percent Reduction of lesions (HSV-2; TEAC ointment from 12-16 hours P.I., day 4 P.I.): 27.5%
- # of lesions (HSV-2; TEAC ointment from 12-16 hours P.I., day 4 P.I., control 40): 29 lesions
- Percent Reduction of lesions (HSV-2; TEAC ointment from 12-16 hours P.I., day 5 P.I.): 58.5%
- # of lesions (HSV-2; TEAC ointment from 12-16 hours P.I., day 5 P.I., control 41): 17 lesions
- Percent Reduction of lesions (HSV-2; TEAC ointment from 12-16 hours P.I., day 6 P.I.): 58.3%
- # of lesions (HSV-2; TEAC ointment from 12-16 hours P.I., day 6 P.I., control 36): 15 lesions
- dermatitis (rash) (HSV-2; day 4 after treatment, TEAC or its vehicle or both): a rash appeared
- size of the plaque vs control (HSV-1 (F strain) [1]): appreciably smaller
- average number of plaque (HSV-1 (F strain) [1]; 1 ml + 4 ml media, after adsorption, control 488.5): 75.5 plaque
- antiviral activity (HSV-1 (F strain) [2]; Exp. 1C, all dilutions tested): Antiviral activity was seen in all dilutions tested
- % plaque inhibition (HSV-1 (F strain) [2]; Exp. 1C, 0.62 mg/culture): 30%
- % plaque inhibition (HSV-1 (F strain) [2]; Exp. 1C, 1.25 mg/culture): 39%
- % plaque inhibition (HSV-1 (F strain) [2]; Exp. 1C, 2.50 mg/culture): 46%
- % plaque inhibition (HSV-1 (F strain) [2]; Exp. 1C, 5.00 mg/culture): 45%
- % plaque inhibition (HSV-1 (F strain) [2]; Exp. 1C, 10.00 mg/culture): 56%
- appearance of cell layer (HSV-1 (F strain) [2]; 25 mg/culture): thin
- appearance of cell layer (HSV-1 (F strain) [2]; 50 mg/culture): thin
- % plaque inhibition A (HSV-1 (F strain) [2]; 6.2 mg/culture): 20%
- % plaque inhibition A (HSV-1 (F strain) [2]; 12.5 mg/culture): 62%
- % plaque inhibition A (HSV-1 (F strain) [2]; 25.0 mg/culture, cell layer thin): 100%
- % plaque inhibition A (HSV-1 (F strain) [2]; 50.0 mg/culture, cell layer thin): 100%
- drug related effects (Patient A, 2.8 cc infusion): some blurred vision and slight dizziness on rising to the seated position
- drug related effects (Patient A, 3.2 cc infusion): some blurred vision
- drug related effects (Patient B, 3.7 cc (5 mg/kg) infusion): blurred vision, dryness of the mouth, and unsteady gait
- time to cessation of drug related effects (Patient B, after cessation of infusion): 10 to 15 min
- drug related effects (Patient C, 3.85 cc (5 mg/kg)): slightly blurred vision
- drug related effects (Patient D, 2.8 cc (5 mg/kg)): dry mouth and transient blurred vision
- drug related effects (Patient E, 4.8 cc (5 mg/kg)): slightly blurred vision
- drug related effects (Patient J, 3.6 cc (5.5 mg/kg)): some blurred vision
- drug related effects (Patient K, 3.1 cc and 3.4 cc): some blurred vision
- drug related effects (Patient L, 2.9 cc (5.5 mg/kg)): some blurred vision
- time patient felt badly following treatment (Patient L, 2.9 cc (5.5 mg/kg)): 24 to 36 h
- cells exhibiting CPE, area of infection per field (HSV-1 (McKrae strain) [3]; 6 hours P.I., virus control 1/4): 1/6
- cells exhibiting CPE, area of infection per field (HSV-1 (McKrae strain) [3]; 30 hours P.I., virus control 1/2): scattered
- toxicity [4]: toxicity
- toxicity (RK-13 cells): toxicity
- toxicity (Vero cells): slight toxicity
- appearance of cell layers (vaccinia): thin
- plaque (vaccinia): did not have any plaque
- No. of Plaques (HSV-1 (McKrae strain) [5]; 3.125 mg/ml): 247
- No. of Plaques (HSV-1 (McKrae strain) [5]; 6.250 mg/ml): 286
- No. of Plaques (HSV-1 (McKrae strain) [5]; 12.500 mg/ml): 300
- appearance of monolayer (HSV-1 (McKrae strain) [5]; 25 mg/ml): thinned out appearance
- No. of Plaques (HSV-1 (McKrae strain) [5]; 25.000 mg/ml): 0
- effectiveness in plaque inhibition (HSV-1 (McKrae strain) [5]; concentrations below 25 mg/ml): not significantly effective in achieving plaque inhibition
- rate of growth vs cultures without TEAC [6]: no difference in the rate of growth
- sciatic pain (HSV type 2; Patient A, 2.8 cc (100 mg/cc), first infusion, immediately after): cessation of sciatic pain
- pain or lesions (HSV type 2; Patient A, about five weeks after third infusion 3.4 cc): no further pain or lesions
- time without lesions or pain (HSV type 2; Patient A, after first infusion): 52 to 53 days
- time until spots were gone (HSV type 2; Patient A, after third infusion): 24 h
- symptoms (HSV type 2; Patient A, approximately three weeks after first infusion): asymptomatic
- lesions or pain at last contact (HSV type 2; Patient A, eighteen months after the initial exam): no further lesions or pain
- time to disappearance of vesicles (HSV type 2; Patient A, recurrence after first infusion): two to three
- sciatic nerve pain (HSV type 2; Patient A, second infusion 3.2 cc): sciatic nerve pain disappeared during the infusion
- clearance (HSV type 2; Patient E, a week after second infusion, 2 pinpoint lesions remaining): 99%
- new pinpoint lesions (HSV type 2; Patient E, after third infusion): 5-6 pinpoint lesions
- lesions (HSV type 2; Patient E, third infusion 5 cc, 5 days later): all lesions had cleared up
- general condition (HSV type 2; Patient F, about 3 weeks after third infusion): completely cleared up
- lesion (HSV type 2; Patient F, first infusion 3.8 cc, next day): improved
- time to clearing of lesion (HSV type 2; Patient F, second infusion 4.5 cc): 48 h
- time to clearing of lesions (HSV type 2; Patient F, third infusion 4.0 cc): ≤ 4 days
- time until lesions were gone (HSV type 2; Patient G, first infusion 4.3 cc): ≤ 48 h
- long term outcome (HSV type 2; Patient J, 12 months later, ointment): the problem has resolved itself completely
- severity of subsequent attacks (HSV type 2; Patient K, after second infusion): milder severity
- anticipated massive attack (HSV type 2; Patient K, second infusion 3.4 cc, six weeks later): the attack had not occurred
